This is an account of results in ChEMBL document CHEMBL3832761, “MMV Pathogen Box Bioactivity Data” (2017).

What all share (format): functional
For experiment [1], the system named is Mycobacterium tuberculosis. The experiment in a line: AntiMycobacterium tuberculosis activity Replicating form: Average MIC90 (uM).
In experiment [2] the test system is Mycobacterium tuberculosis. Description: AntiMycobacterium tuberculosis activity 2-week GAST/Fe MIC (uM). Particulars: 336 h.
For experiment [3], the system named is Mycobacterium tuberculosis. The experiment in a line: AntiMycobacterium tuberculosis activity 2-week 7H9/ADC/Tw MIC (uM). As to conditions: 336 h.
Experiment [4] deals with Mycobacterium tuberculosis. Description: AntiMycobacterium tuberculosis activity day 21 MIC99 in 7H9/2.5mM butyrate/pH6/0.1mM nitrite MIC99 (uM). Particulars: 504 h.
In experiment [5] the test system is Mycobacterium tuberculosis. The experiment in a line: AntiMycobacterium tuberculosis activity 1-week GAST/Fe MIC (uM). As to conditions: 168 h.
The test system of experiment [6] is Mycobacterium tuberculosis. Description: (§1) AntiMycobacterium tuberculosis activity day 10 in 7H9/2.5mM butyrate/pH6/0.1mM nitrite MIC90 (uM). As to conditions: 240 h.
For experiment [7], the system named is Mycobacterium tuberculosis. Description: AntiMycobacterium tuberculosis activity 2-week Alamar Blue 7H9/cholesterol/BSA/Tx MIC (uM). As to conditions: 336 h. In general terms: The colour change of resazurin is a common sign of viable cells or microbes.
A further experiment relates to HepG2. The experiment in a line: HepG2 CC50 (uM) Cytotoxicity. As to conditions: Homo sapiens.
For experiment [8], the system named is Mycobacterium tuberculosis. Description: AntiMycobacterium tuberculosis activity 1-week 7H9/cholesterol/BSA/Tx MIC (uM). As to conditions: 168 h.
Experiment [9] deals with Mycobacterium tuberculosis. Description: AntiMycobacterium tuberculosis activity day 21 in 7H9/2.5mM butyrate/pH6/0.1mM nitrite MIC90 (uM). As to conditions: 504 h.
The subject of experiment [10] is Mycobacterium tuberculosis. The experiment in a line: AntiMycobacterium tuberculosis activity 2-week Alamar Blue 7H9/ADC/Tw MIC (uM). As to conditions: 336 h.
The subject of experiment [11] is Mycobacterium tuberculosis. The experiment is described as §1. Particulars: 240 h. This is another data set of the same source.
Experiment [12] relates to Mycobacterium tuberculosis. Description: AntiMycobacterium tuberculosis activity Non-Replicating form: Average MIC90 (uM).
Experiment [13] has as its system Mycobacterium tuberculosis. The experiment in a line: AntiMycobacterium tuberculosis activity 2-week 7H9/DPPC/cholesterol/BSA/Tx MIC (uM). Particulars: 336 h.
The subject of experiment [14] is Mycobacterium tuberculosis. Description: AntiMycobacterium tuberculosis activity 1-week 7H9/ADC/Tw MIC (uM). As to conditions: 168 h.
Experiment [15] has as its system Mycobacterium tuberculosis. The experiment in a line: AntiMycobacterium tuberculosis activity 1-week 7H9/glucose/BSA/Tx MIC (uM). As to conditions: 168 h.
In experiment [16] the test system is Mycobacterium tuberculosis. Description: AntiMycobacterium tuberculosis activity 1-week 7H9/DPPC/cholesterol/BSA/Tx MIC (uM). As to conditions: 168 h.
The subject of experiment [17] is Mycobacterium tuberculosis. The experiment in a line: AntiMycobacterium tuberculosis activity 2-week 7H9/glucose/BSA/Tx MIC (uM). Particulars: 336 h.

Values after ≈ are worked out from the molar mass of the structure shown. A value given as a limit tells only on which side of the number the result lay.

Consider `Cc1nc2ccccn2c1C(=O)NCc1ccc(Cl)cc1`, for which the MIC90 in experiment [1] was > 100 µM; in experiment [6] it was > 50 µM; in experiment [9], 50 µM (≈ 15 µg/mL); in experiment [11], 50 µM (≈ 15 µg/mL); in experiment [12], 2 µM (≈ 0.6 µg/mL). For the same compound, the MIC in [2] is 0.07 µM (≈ 0.021 µg/mL); in [3], > 50 µM; in experiment [4], > 50 µM; in experiment [5] it was 0.05 µM (≈ 0.015 µg/mL); in [7], 3.13 µM (≈ 0.938 µg/mL); in experiment [8] it was 9.4 µM (≈ 2.82 µg/mL). The MIC in experiment [10] was 4.7 µM (≈ 1.41 µg/mL); in experiment [13] it was 25 µM (≈ 7.49 µg/mL); in [14], > 50 µM; in experiment [15], 25 µM (≈ 7.49 µg/mL); in experiment [16], 2.3 µM (≈ 0.689 µg/mL); in experiment [17], > 50 µM. The CC50 in the experiment on HepG2 was > 100 µM.
As to `Brc1c(-c2ccc3c(c2)OCO3)nc2ncccn12`, the MIC90 in [1] is 45.1 µM (≈ 14.4 µg/mL); in [6], > 50 µM; in [9], 12.5 µM (≈ 3.98 µg/mL); in experiment [11], 1.5 µM (≈ 0.477 µg/mL); in experiment [12], 27.8 µM (≈ 8.84 µg/mL). Moreover, the MIC was 0.3 µM (≈ 0.0954 µg/mL) in experiment [2]; 37 µM (≈ 11.8 µg/mL) in experiment [3]; 50 µM (≈ 15.9 µg/mL) in [4]; 0.2 µM (≈ 0.0636 µg/mL) in experiment [5]; 2.3 µM (≈ 0.732 µg/mL) in [7]; 1.56 µM (≈ 0.496 µg/mL) in [8]. The minimum inhibitory concentration (MIC) in [10] came out at 4.7 µM (≈ 1.5 µg/mL); in experiment [13] it was 25 µM (≈ 7.95 µg/mL); in experiment [14], 25 µM (≈ 7.95 µg/mL); in [15], 25 µM (≈ 7.95 µg/mL); in experiment [16] it was 3.13 µM (≈ 0.996 µg/mL); in experiment [17], 37 µM (≈ 11.8 µg/mL). For the same compound, the half-maximal cytotoxic concentration (CC50) in the experiment with HepG2 is > 100 µM.
Turning to `CC(=O)NCC1CN(c2ccc(-c3ccc(CO)cc3)c(F)c2)C(=O)O1` (stereo not drawn), the MIC90 in experiment [1] turned out to be 0.49 µM (≈ 0.176 µg/mL); in experiment [6] it was 1.5 µM (≈ 0.538 µg/mL); in experiment [9], 0.78 µM (≈ 0.28 µg/mL); in experiment [11] it was 0.39 µM (≈ 0.14 µg/mL); in [12] it was 0.32 µM (≈ 0.115 µg/mL). For the same compound, the minimum inhibitory concentration (MIC) in experiment [2] turned out to be 0.3 µM (≈ 0.108 µg/mL); in [3], 0.6 µM (≈ 0.215 µg/mL); in experiment [4] it was 1.5 µM (≈ 0.538 µg/mL); in [5] it was 0.1 µM (≈ 0.0358 µg/mL); in [7], 0.39 µM (≈ 0.14 µg/mL); in [8], 0.39 µM (≈ 0.14 µg/mL). Also, the MIC amounted to 0.39 µM (≈ 0.14 µg/mL) in [10]; 0.6 µM (≈ 0.215 µg/mL) in experiment [13]; 0.39 µM (≈ 0.14 µg/mL) in experiment [14]; 0.6 µM (≈ 0.215 µg/mL) in experiment [15]; 0.39 µM (≈ 0.14 µg/mL) in experiment [16]; 0.6 µM (≈ 0.215 µg/mL) in experiment [17]. For the same compound, the 50% cytotoxic concentration (CC50) with HepG2 is > 100 µM.
For `O=C(Nc1nnc(-c2ccc(Cl)cc2)o1)c1cccc(C(F)(F)F)c1`, the MIC90 in experiment [1] was 27.2 µM (≈ 10 µg/mL); in experiment [6] it was > 50 µM; in [9] it was 12.5 µM (≈ 4.6 µg/mL); in [11], 12.5 µM (≈ 4.6 µg/mL); in experiment [12] it was 2.71 µM (≈ 0.997 µg/mL). Moreover, the minimum inhibitory concentration (MIC) is 0.07 µM (≈ 0.0257 µg/mL) in experiment [2]; 25 µM (≈ 9.19 µg/mL) in experiment [3]; 50 µM (≈ 18.4 µg/mL) in [4]; 0.05 µM (≈ 0.0184 µg/mL) in [5]; 12.5 µM (≈ 4.6 µg/mL) in experiment [7]; 19 µM (≈ 6.99 µg/mL) in experiment [8]. In addition, the MIC in experiment [10] came to 25 µM (≈ 9.19 µg/mL); in [13] it was 19 µM (≈ 6.99 µg/mL); in experiment [14], 25 µM (≈ 9.19 µg/mL); in experiment [15], 3.13 µM (≈ 1.15 µg/mL); in experiment [16] it was 4.7 µM (≈ 1.73 µg/mL); in [17] it was 6.25 µM (≈ 2.3 µg/mL). The compound further had a cytotoxic concentration (CC50) in the experiment with HepG2 of 9 µM.
As for `CCc1nc2ccccc2n1CC(O)COc1cc(C)ccc1Cl` (stereo not drawn), the MIC90 in [1] was 78 µM (≈ 26.9 µg/mL); in experiment [6], > 50 µM; in [9] it was 50 µM (≈ 17.2 µg/mL); in [11], 25 µM (≈ 8.62 µg/mL); in experiment [12], 70 µM (≈ 24.1 µg/mL). In addition, the MIC in experiment [2] is 12.5 µM (≈ 4.31 µg/mL); in experiment [3], ≥ 50 µM; in experiment [4], > 50 µM; in [5] it was 12.5 µM (≈ 4.31 µg/mL); in experiment [7] it was 9.4 µM (≈ 3.24 µg/mL); in experiment [8], 9.4 µM (≈ 3.24 µg/mL). The MIC in experiment [10] was 37 µM (≈ 12.8 µg/mL); in experiment [13], 25 µM (≈ 8.62 µg/mL); in experiment [14] it was 37 µM (≈ 12.8 µg/mL); in experiment [15] it was 37 µM (≈ 12.8 µg/mL); in [16], 12.5 µM (≈ 4.31 µg/mL); in experiment [17] it was ≥ 50 µM. Further, the CC50 in the experiment on HepG2 was 43.2 µM.
Regarding `CCCn1nnc(NC(=O)COc2ccc(C3CCCCC3)cc2)n1`, the MIC90 in experiment [1] came to 40.1 µM (≈ 13.8 µg/mL); in experiment [6], 50 µM (≈ 17.2 µg/mL); in experiment [9], 50 µM (≈ 17.2 µg/mL); in experiment [11], 25 µM (≈ 8.59 µg/mL); in experiment [12] it was 98.5 µM (≈ 33.8 µg/mL). Moreover, the MIC in experiment [2] stood at 12.5 µM (≈ 4.29 µg/mL); in [3], 37 µM (≈ 12.7 µg/mL); in experiment [4], 50 µM (≈ 17.2 µg/mL); in experiment [5], 6.25 µM (≈ 2.15 µg/mL); in experiment [7] it was 25 µM (≈ 8.59 µg/mL); in experiment [8], 6.25 µM (≈ 2.15 µg/mL). Moreover, the MIC stood at 37 µM (≈ 12.7 µg/mL) in [10]; 37 µM (≈ 12.7 µg/mL) in experiment [13]; 19 µM (≈ 6.53 µg/mL) in [14]; 19 µM (≈ 6.53 µg/mL) in experiment [15]; 19 µM (≈ 6.53 µg/mL) in [16]; 37 µM (≈ 12.7 µg/mL) in [17]. Further, in the experiment with HepG2, the cytotoxic concentration (CC50) was > 100 µM.

One may read the MIC90 as an inhibitory concentration at the 90% level, which refers to growth in some studies and to a panel of isolates in others. Low readings indicate greater potency, high ones weaker potency. Broadly, the MIC is the lowest concentration that inhibits growth of the organism. A low value points to greater potency. What is called CC50 is the concentration giving 50% cytotoxicity.
